Experimental data as given in patent publication US11795460B2, “Compositions and methods for TTR gene editing and treating ATTR amyloidosis” (Intellia Therapeutics, Inc., priority 2017, dated 2023).

How the values were obtained:
TTR [1] = test: TTR editing in primary human hepatocytes transfected with Spy Cas9 protein (RNP) loaded with dgRNAs (Table 8); assay type: cell-based; conditions: dgRNA transfected with Spy Cas9 protein (RNP)
Method in brief: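 Primary human hepatocytes were lipofected (RNAiMAX) with RNP of Spy Cas9 (10 nM) plus pre-annealed crRNA (10 nM) and trRNA (10 nM) and harvested 24, 48 or 72 h later. Target-site amplicons were sequenced on Illumina MiSeq and aligned to hg38; percent editing = reads with indels or substitutions over total reads.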

TTR [2] = test: TTR editing in HUH7 cells transfected with Spy Cas9 mRNA and dgRNAs (Table 5); assay type: cell-based, human; conditions: HUH7 cells co-transfected with Spy Cas9 mRNA (SEQ ID NO:2) and dgRNAs
Procedure: HUH7 cell line. The human hepatocellular carcinoma cell line HUH7 (Japanese Collection of Research Bioresources Cell Bank, Cat. JCRB0403) was cultured in DMEM media supplemented with 10% fetal bovine serum. Cells were plated on at a density of 15,000 cells/well in a 96-well plate 20 hours prior to transfection. Cells were transfected with Lipofectamine MessengerMAX (ThermoFisher, Cat. LMRNA003) per the manufacturer's protocol. Cells were sequentially transfected with a lipoplex containing Spy Cas9 mRNA (100 ng), MessengerMAX (0.3 μL/well) and OptiMem followed by a separate lipoplex containing individual crRNA (25 nM), tracer RNA (25 nM), MessengerMAX (0.3 μL/well) and OptiMem.
Transfected cells were harvested post-transfection at 24, 48, or 72 hours. The genomic DNA was extracted from each well of a 96-well plate using 50 μL/well BuccalAmp DNA Extraction solution (Epicentre, Cat. QE09050) per manufacturer's protocol. All DNA samples were subjected to PCR and subsequent NGS analyses, as described herein.
To quantitatively determine the efficiency of editing at the target location in the genome, sequencing was utilized to identify the presence of insertions and deletions introduced by gene editing.
Primers were designed around the target site within the gene of interest (e.g. TTR), and the genomic area of interest was amplified.
Additional PCR was performed per the manufacturer's protocols (Illumina) to add chemistry for sequencing. The amplicons were sequenced on an Illumina MiSeq instrument. The reads were aligned to a reference genome (e.g., the human reference genome (hg38), the cynomologus reference genome (mf5), the rat reference genome (rn6), or the mouse reference genome (mm10)) after eliminating those having low quality scores. The resulting files containing the reads were mapped to the reference genome (BAM files), where reads that overlapped the target region of interest were selected and the number of wild type reads versus the number of reads which contain an insertion, substitution, or deletion was calculated.
The editing percentage (e.g., the “editing efficiency” or “percent editing” or “indel frequency”) is defined as the total number of sequence reads with insertions/deletions (“indels”) or substitutions over the total number of sequence reads, including wild type.
Guides in dgRNA format targeting human TTR and the cynomologus matched sequences were delivered to HEK293 Cas9, HUH7 and HepG2 cell lines, as well as primary human hepatocytes and primary cynomolgus monkey hepatocytes as described in Example 1. Percent editing was determined for crRNAs comprising each guide sequence across each cell type and the guide sequences were then rank ordered based on highest % edit. The screening data for the guide sequences in Table 1 in all five cell lines are listed below (Table 4 through 11).

TTR [3] = test: TTR editing in primary human hepatocytes electroporated with Spy Cas9 protein loaded with dgRNAs (Table 7); assay type: cell-based; conditions: dgRNA electroporated with Spy Cas9 protein (RNP)
Method in brief: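 Editing efficiency is the fraction of NGS reads carrying insertions, deletions or substitutions at the TTR target, measured on MiSeq amplicons from DNA harvested 24, 48 or 72 h post-delivery. Cas9–dgRNA ribonucleoprotein was nucleofected (P3 buffer, EX-147) into primary human or cyno hepatocytes.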

Sequence | Avg % Deletion (TTR [1]) | Avg % Edit (TTR [1]) | Avg % Insert (TTR [1]) | Avg % Deletion (TTR [2]) | Avg % Edit (TTR [2]) | Avg % Insert (TTR [2]) | Avg % Deletion (TTR [3]) | Avg % Edit (TTR [3]) | Avg % Insert (TTR [3])
UGGACUGGUAUUUGUGUCUG (tested as dual guide RNA, chemistry not given here) [CR003340] | 4.50% | 10.44% | 5.94% | 14.23% | 46.93% | 33.33% | 6.50% | 12.03% | 5.60%
GUCACAGAAACACUCACCGU (tested as dual guide RNA, chemistry not given here) [CR005301] | 1.84% | 31.37% | 29.53% | – | – | – | 1.60% | 25.37% | 24.00%
AUUGGUGACGACAGCCGUGG (tested as dual guide RNA, chemistry not given here) [CR003389] | 0.68% | 19.87% | 19.19% | 50.90% | 62.32% | 13.19% | 0.50% | 27.67% | 27.20%
CCGUGGUGGAAUAGGAGUAG (tested as dual guide RNA, chemistry not given here) [CR003386] | 0.25% | 3.22% | 2.97% | 69.34% | 69.40% | 0.53% | 0.47% | 4.90% | 4.47%
GACGACAGCCGUGGUGGAAU (tested as dual guide RNA, chemistry not given here) [CR003388] | 1.05% | 5.43% | 4.38% | 56.45% | 59.48% | 3.88% | 0.27% | 5.70% | 5.47%
UGUAGAAGGGAUAUACAAAG (tested as dual guide RNA, chemistry not given here) [CR003365] | 7.54% | 47.78% | 40.24% | 43.82% | 60.68% | 17.77% | 6.83% | 42.37% | 35.57%
AUAGGAGUAGGGGCUCAGCA (tested as dual guide RNA, chemistry not given here) [CR003383] | 0.24% | 4.76% | 4.52% | 41.19% | 42.89% | 2.14% | 5.27% | 8.57% | 3.37%
AUACCAGUCCAGCAAGGCAG (tested as dual guide RNA, chemistry not given here) [CR003338] | 2.22% | 61.34% | 59.13% | 67.06% | 75.64% | 10.22% | 2.13% | 83.03% | 80.87%
ACCUCUGCAUGCUCAUGGAA (tested as dual guide RNA, chemistry not given here) [CR003371] | 1.57% | 18.80% | 17.23% | 35.65% | 40.47% | 6.07% | 1.87% | 16.20% | 14.47%
AGACACCAAAUCUUACUGGA (tested as dual guide RNA, chemistry not given here) [CR003367] | 15.13% | 31.19% | 16.06% | 33.48% | 66.29% | 33.62% | 16.37% | 39.20% | 22.93%
UCUAGAACUUUGACCAUCAG (tested as dual guide RNA, chemistry not given here) [CR003345] | 7.91% | 28.90% | 21.00% | 32.18% | 72.43% | 41.33% | 13.57% | 48.07% | 34.53%
GCAACUUACCCAGAGGCAAA (tested as dual guide RNA, chemistry not given here) [CR003356] | 1.29% | 7.53% | 6.24% | 31.31% | 49.63% | 18.98% | 2.23% | 9.97% | 7.80%
AAAUAGACACCAAAUCUUAC (tested as dual guide RNA, chemistry not given here) [CR003366] | 4.79% | 42.74% | 37.95% | 50.32% | 69.98% | 20.77% | 3.10% | 34.70% | 31.63%
CCCAGAGGCAAAUGGCUCCC (tested as dual guide RNA, chemistry not given here) [CR003355] | 1.42% | 19.11% | 17.69% | 30.31% | 38.83% | 9.40% | 1.97% | 12.53% | 10.60%
GAAAGGCUGCUGAUGACACC (tested as dual guide RNA, chemistry not given here) [CR003352] | 3.21% | 30.48% | 27.27% | 32.79% | 39.68% | 7.62% | 4.30% | 29.83% | 25.63%
UACUCACCUCUGCAUGCUCA (tested as dual guide RNA, chemistry not given here) [CR003372] | 1.81% | 17.56% | 15.74% | 17.25% | 21.52% | 4.89% | 1.77% | 12.17% | 10.47%
UGAAUCCAAGUGUCCUCUGA (tested as dual guide RNA, chemistry not given here) [CR005303] | 0.39% | 36.45% | 36.06% | – | – | – | 0.53% | 53.57% | 53.07%
CCCCUACUCCUAUUCCACCA (tested as dual guide RNA, chemistry not given here) [CR003385] | 3.00% | 41.15% | 38.15% | – | – | – | 2.53% | 40.87% | 38.43%
ACGUGUCUUCUCUACACCCA (tested as dual guide RNA, chemistry not given here) [CR005302] | 0.97% | 48.29% | 47.32% | – | – | – | 1.00% | 61.10% | 60.10%
